Patent US11518783B2, “Peptides having tetrahedral mimicking groups as inhibitors of rhomboid proteases” (priority 2016, dated 2022)
Peptide text beside a SMILES is read from it. * marks the point of attachment. CHO = C-terminal aldehyde in place of the boronate, O=C*; boroAla = C[C@H](N*)B(O)O

Assays:
PfROM4 = assay: Heterologous cell-based rhomboid cleavage assay in co-transfected HEK293 cells, EBA175 cleavage by PfROM4; parameters: species or system P. falciparum; settings: western of conditioned media
Description: (§1) FIG. 4A-F illustrates RiBn is a non-toxic, selective inhibitor of only PfROM4. A. Chemical structure of one embodiment of RiBn, a peptide of 10 aa with boronate warhead (SEQ ID NO: 3). Ac denotes an N-terminal acetyl moiety, while the C-terminal boronate warhead is on the right. B. Western blot analysis of EBA175 and AMA1 cleavage by PfROM4 in a heterologous cleavage assay. Co-transfected HEK293 cells were conditioned in the presence of absence of the indicated concentrations of RiBn. Cells transfected with AMA1 were conditioned in the presence or absence of the metalloprotease inhibitor (WI) BB-94 to reduce background cleavage by endogenous cellular proteases. N-terminal cleavage products were released into media (anti-GFP, top panels). Lysates were probed for expression of substrate (anti-GFP, middle panel) and enzyme (anti-HA, bottom panel). Quantification of PfROM4 inhibition by RiBn (right panel, mean±s.e.m.). […] Inhibition was analyzed in three independent biological experiments. […] Flow cytometry analysis (calcein AM fluorescence) of the same cells (right panels). […] For data in D and E, toxicity analyses were conducted in three independent biological experiments (once for each assay readout). […]
(§2) Cleavage of substrates and the activity of enzymes was determined in a slightly modified heterologous cleavage assay. […] Two-color quantitative westerns were converted to greyscale.

PfROM1 = assay: Heterologous cell-based rhomboid cleavage assay, PfROM1; parameters: species or system P. falciparum; settings: highest RiBn concentration, transfection-based assay
Description: as §1, §2

human rhomboid enzyme = molecular target: T1, human rhomboid enzyme (Homo sapiens, UniProt Q9NX52); assay: Heterologous cell-based rhomboid cleavage assay, human rhomboid enzyme; settings: transfection-based assay, analyzed in parallel
T1 construct: expressed in transfected cells; host or cells: HEK293T (ATCC CRL-11268), pcDNA3.1
T1 sequence (Q9NX52 1-303): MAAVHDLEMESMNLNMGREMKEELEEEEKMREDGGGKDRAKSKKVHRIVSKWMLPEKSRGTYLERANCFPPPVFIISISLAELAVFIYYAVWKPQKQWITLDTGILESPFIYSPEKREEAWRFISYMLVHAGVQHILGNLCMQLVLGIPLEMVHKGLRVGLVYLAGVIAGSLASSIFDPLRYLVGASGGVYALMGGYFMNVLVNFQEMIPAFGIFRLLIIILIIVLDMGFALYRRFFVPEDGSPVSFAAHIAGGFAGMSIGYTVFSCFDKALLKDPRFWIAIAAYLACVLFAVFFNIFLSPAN
Description: as §1, §2

[1] = system: other five rhomboid proteases known to reside on the cell surface; assay: Heterologous cell-based rhomboid cleavage assay, other cell surface rhomboid enzymes and their substrates
Description: as §1, §2

[2] = LIVE/DEAD viability of RiBn-treated HEK293 cells (fluorescence microscopy and flow cytometry); format: cell-based, human; settings: human, highest RiBn dose, ~24 hours, calcein AM, read-out: cell viability by flow cytometry
Description: as §1, with “Lysates were probed for expression of substrate (anti-GFP, middle panel) and enzyme (anti-HA, bottom panel).” left out
(§3) Cell viability of RiBn-treated HEK293 cells was determined with a LIVE/DEAD Viability/Cytotoxicity Kit (Molecular Probes). Calcein AM and ethidium homodimer-1 stained cells were imaged on an inverted fluorescence microscope (Nikon) with the appropriate bandpass filters. […]

HEK293 cells [3] = assay: as above; format: cell-based, human; settings: highest concentrations
Description: as §1, with “Lysates were probed for expression of substrate (anti-GFP, middle panel) and enzyme (anti-HA, bottom panel).” left out
as §3

HEK293 cells [4] = assay: Cell cycle analysis of HEK293 cells by flow cytometry (propidium iodine); format: cell-based, human; settings: 24 hours
[5] = system: P. falciparum 3d7 parasites; assay: P. falciparum growth (parasitemia) on human erythrocytes, flow cytometry with acridine orange; format: cell-based; settings: for inhibition of parasite growth: P. falciparum on human red blood cells
Protocol: (§4) Inhibitor potency was verified in three independent biological experiments. […] Quantification was conducted once. C.
FIG. 6A-6C illustrates RiBn cures blood stage cultures of malaria by iteratively inhibiting parasite invasion and retarding growth. A. Blood stage cultures containing 1% well synchronized schizont stage parasitized erythrocytes were cultured in the presence or absence of 0.3 mM RiB, as indicated, and analyzed at various time points via flow cytometry (acridine orange, top panels) and fluorescent microscopy (acridine orange staining, bottom panels). After 18 hours of culturing, RiBn was washed out of one replicate of the RiBn treated cultures and monitored as above, as indicated. […] C. Quantification of absolute parasitemia at various time points in blood stage parasite cultures treated with the indicated concentrations of RiBn. In a-c, growth defect was confirmed in three independent biological experiments, while the parallel washout was conducted once and is shown.
(§5) Asexual P. falciparum 3d7 parasites (kind gift of Dr David Sullivan, Johns Hopkins School of Public Health) were cultured in human erythrocytes (O-donor, purchased from Interstate Blood Bank, Inc.) under standard conditions. Sorbitol synchronization was performed ˜1/week or as needed for experiments. For invasion assays, schizont-stage parasites were magnetically purified as previously described (MACS Miltenyi Biotec) and incubated at the appropriate parasitemia (0.2% for dose-response curves) in a 96-well plate in the presence or absence of the peptide-warhead inhibitors at 1.5% hematocrit. Flow cytometry analysis for absolute parasitemia determination and growth characterization was performed by removing a small volume of culture, washing cells in 1×PBS, resuspending them in 1×PBS containing 0.1 μg/mL acridine orange and monitoring FL1/FL3 fluorescence on a FACSCalibur instrument (BD Biosciences). Methanol-fixed, acridine orange stained parasitized erythrocytes were imaged on an inverted fluorescence microscope (Nikon) with bandpass filters. Images were overlaid in Photoshop CC (Adobe). All flow cytometry data were analyzed in FlowJo.

P. falciparum merozoites = assay: P. falciparum invasion assay with synchronized schizont-stage parasites; format: cell-based
Protocol: as §4, §5

human erythrocytes = settings: erythrocytes cultured ~18 hours with RiBn
Protocol: B. Bright-field microscopy (top panel) and flow cytometry analysis (Forward Scatter vs Side Scatter, bottom panel) of erythrocytes cultured in the presence or absence of RiBn for ˜18 hours. Quantification was conducted once.

GlpG = GlpG (Escherichia coli, UniProt P09391); settings: GlpG in living E. coli cells, side-by-side comparison
Sequence of GlpG (P09391 whole entry): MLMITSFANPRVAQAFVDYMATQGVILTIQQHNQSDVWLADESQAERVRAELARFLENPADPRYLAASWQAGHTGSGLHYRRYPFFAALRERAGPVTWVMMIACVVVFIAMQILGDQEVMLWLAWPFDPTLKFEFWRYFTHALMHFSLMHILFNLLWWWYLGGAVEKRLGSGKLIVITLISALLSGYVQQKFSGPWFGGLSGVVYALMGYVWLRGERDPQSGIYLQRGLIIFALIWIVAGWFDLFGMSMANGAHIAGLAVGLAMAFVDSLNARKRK
Protocol: F. Inhibition of endogenous GlpG activity in living E. coli cells grown in liquid culture. Δ is the negative control in which GlpG was deleted from the E. coli genome. Peptide inhibitors were added at the indicated concentrations directly to growing cultures. Shown are quantitative infrared anti-flag westerns, with the top band being the TatA-Flag uncut substrate, and the lower band being the cut product. Quantification of cleavage was used to calculate the EC50 concentrations (graph on right, mean±s.e.m.). Inhibition was analyzed in three independent biological experiments, each with a full spectrum of concentrations per compound.
Dose-response curves were analyzed in the R environment. Curve fitting and graphing was performed with the DRC package using data appropriate models. EC50 values are depicted along with the standard error of the fit.

Row | Compound | inhibition of EBA175 processing by PfROM4 (PfROM4) | inhibition of PfROM1 (PfROM1) | inhibition of the human rhomboid enzyme (human rhomboid enzyme) | effect on cell viability or function (translation, glycosylation, trafficking, secretion of substrates) ([1]; transfected HEK293 cells, highest RiBn concentrations) | inhibition of the other five cell surface rhomboid proteases ([1]; transfection-based assay, analyzed in parallel) | viability [2] [%] | cell viability in fluorescence-based live/dead cell assay (HEK293 cells [3]) | adherence, growth, or cell cycle distribution of treated versus untreated cells (HEK293 cells [4]) | inhibition of parasite growth [5] | effect on other parasite stages including egress ([5]; delayed parasites through lifecycle stages) | growth of parasites that invaded in presence of RiBn ([5]; subsequent time points, versus vehicle-treated controls) | effect of washing out RiBn after the first round of invasion ([5]; washout after 18 hours, 0.3 mM) | maximal inhibition of merozoite invasion (P. falciparum merozoites; first round of infection, flow cytometry) [%] | inhibition of merozoite invasion of red blood cells (P. falciparum merozoites; synchronized cultures, ~24 hours) | host cell (red blood cell) viability (human erythrocytes) | increase in potency relative to the aldehyde of the same tetrapeptide (GlpG) [fold] | increase in potency relative to the chloromethylketone of the same tetrapeptide (GlpG) [fold]
1 | CSCC[C@H](NC(=O)[C@H](CO)NC(=O)[C@H](CCCNC(=N)N)NC(=O)[C@H](Cc1ccccc1)NC(=O)[C@H](CCCNC(=N)N)NC(=O)[C@H](CCCCN)NC(C)=O)C(=O)N[C@@H](CCC(N)=O)C(=O)N[C@@H](Cc1ccc(O)cc1)C(=O)N[C@@H](CO)C(=O)N[C@@H](C)B(O)O [RiBn] (Ac-KRFRSMQYS-boroAla) | inhibited EBA175 processing by PfROM4 in a dose-dependent manner | completely unaffected | no inhibitory effect | no apparent effect on cell viability or function | no inhibitory effect | 92.4 | no change in cell viability | no apparent change | dose-dependent inhibition of parasite growth | minimally or not affected | grew considerably slower than vehicle-treated controls | rescued parasite growth | ~50 | dose-dependent inhibition of merozoite invasion | not affecting host cell viability |  | 
2 | Ac-VRMA-B(OH)2 |  |  |  |  |  |  |  |  |  |  |  |  |  |  |  | > 100 | > 400
3 | peptide-aldehyde: same peptide sequence as RiBn but replacing the boronate with an aldehyde moiety (Ac-KRFRSMQYSA-{CHO}; also: aldehyde moiety replacing the boronate, place not given here) [reference compound] | completely abolished PfROM4 inhibition |  |  |  |  |  |  |  | abolished inhibition |  |  |  |  |  |  |  | 
